From PubChem BioAssay (NCI)
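Test compounds were applied to cells in 96-well plates for 48 hours at 5 doses. Here, GI50 denotes the concentration required for 50% inhibition of growth. TGI: total growth inhibition.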

Key:
Experiment in all cases: inhibition of tumour cell growth, NCI panel, 48 h
[1] = system: PC-3 prostate
[2] = system: NCI-H460 lung
[3] = system: MALME-3M melanoma
[4] = system: MDA-MB-231 breast
[5] = system: HOP-62 NSCLC
[6] = system: RXF 393 renal
[7] = system: KM12 colon
[8] = system: EKVX NSCLC
[9] = system: SK-OV-3 ovarian
[10] = system: HCT-116 colon
[11] = system: U251 CNS
[12] = system: UACC-62 melanoma
[13] = system: SW-620 colon
[14] = system: A498 renal
[15] = system: NCI/ADR-RES ovarian
[16] = system: HCT-15 colon
[17] = system: LOX IMVI melanoma
[18] = system: HL-60(TB) leukemia
[19] = system: T-47D breast
[20] = system: HCC-2998 colon
[21] = system: MOLT-4 leukemia
[22] = system: SF-539 CNS
[23] = system: SF-295 CNS
[24] = system: TK-10 renal
[25] = system: HT29 colon
[26] = system: M14 melanoma
[27] = system: OVCAR-5 ovarian
[28] = system: COLO 205 colon
[29] = system: SNB-75 CNS
[30] = system: MCF7 breast
[31] = system: NCI-H522 lung
[32] = system: ACHN renal
[33] = system: 786-0 renal
[34] = system: BT-549 breast
[35] = system: NCI-H23 lung
[36] = system: SK-MEL-28 melanoma
[37] = system: NCI-H226 lung
[38] = system: SR leukemia
[39] = system: DU-145 prostate
[40] = system: HOP-92 NSCLC
[41] = system: UO-31 renal
[42] = system: OVCAR-8 ovarian
[43] = system: SN12C renal
[44] = system: SF-268 CNS
[45] = system: CAKI-1 renal
[46] = system: UACC-257 melanoma
[47] = system: OVCAR-3 ovarian
[48] = system: K-562 leukemia
[49] = system: MDA-MB-435
[50] = system: HS 578T breast
[51] = system: SNB-19 CNS
[52] = system: OVCAR-4 ovarian
[53] = system: RPMI-8226 leukemia
[54] = system: SK-MEL-5 melanoma
[55] = system: CCRF-CEM leukemia
[56] = system: A549 NSCLC

For COc1cc(Nc2nc(N[C@H]3CCCC[C@@H]3N)nc3cc[nH]c(=O)c23)cc(OC)c1, the GI50 [1] was 2.53 µM, the TGI [1] was 20.8 µM and the GI50 [2] was 1.28 µM. It also gave a TGI [2] of 4.21 µM, a GI50 [3] of 2.2 µM and a TGI [3] of 22.5 µM. For the same molecule, the GI50 [4] was 1.99 µM, the TGI [4] was 9.35 µM and the GI50 [5] was 3.21 µM. The TGI [5] was 20.8 µM, the GI50 [6] was 0.403 µM and the TGI [6] was 2.76 µM. For the same molecule, the GI50 [7] was 0.422 µM, the TGI [7] was 3.11 µM and the GI50 [8] was 1.08 µM. The TGI [8] was 12.2 µM, the GI50 [9] was 0.388 µM and the TGI [9] was 17.5 µM. It also gave a GI50 [10] of 1.03 µM, a TGI [10] of 2.27 µM and a GI50 [11] of 1.46 µM. The TGI [11] was 5.31 µM, the GI50 [12] was 0.844 µM and the TGI [12] was 19.1 µM. For the same molecule, the GI50 [13] was 1.16 µM, the TGI [13] was 2.97 µM and the GI50 [14] was 1.01 µM. It also gave a TGI [14] of 10.1 µM, a GI50 [15] of 41.4 µM and a TGI [15] of over 100 µM. For the same molecule, the GI50 [16] was 3.97 µM, the TGI [16] was 18.3 µM and the GI50 [17] was 0.468 µM. For the same molecule, the TGI [17] was 1.77 µM, the GI50 [18] was 0.47 µM and the TGI [18] was 3.8 µM. For the same molecule, the GI50 [19] was 12.8 µM, the TGI [19] was 30.2 µM and the GI50 [20] was 1.7 µM. The TGI [20] was 11.5 µM, the GI50 [21] was 1.19 µM and the TGI [21] was 11.4 µM. It also gave a GI50 [22] of 0.454 µM, a TGI [22] of 2.64 µM and a GI50 [23] of 1.5 µM. It also gave a TGI [23] of 4.46 µM, a GI50 [24] of 1.84 µM and a TGI [24] of 19.3 µM. For the same molecule, the GI50 [25] was 0.391 µM, the TGI [25] was 3.69 µM and the GI50 [26] was 0.379 µM. The TGI [26] was 2.16 µM, the GI50 [27] was 1.11 µM and the TGI [27] was 14.6 µM. It also gave a GI50 [28] of 1.04 µM, a TGI [28] of 2.49 µM and a GI50 [29] of 3.27 µM. It also gave a TGI [29] of 17.3 µM, a GI50 [30] of 1.37 µM and a TGI [30] of 8.44 µM. The GI50 [31] was 1.45 µM, the TGI [31] was 4.55 µM and the GI50 [32] was 1.38 µM. It also gave a TGI [32] of 19.9 µM, a GI50 [33] of 3.31 µM and a TGI [33] of 18.8 µM. For the same molecule, the GI50 [34] was 1.57 µM, the TGI [34] was 5.03 µM and the GI50 [35] was 1.48 µM. The TGI [35] was 15.8 µM, the GI50 [36] was 1.86 µM and the TGI [36] was 6.44 µM. It also gave a GI50 [37] of 1.88 µM, a TGI [37] of 12.4 µM and a GI50 [38] of 0.8 µM. For the same molecule, the TGI [38] was 3.91 µM, the GI50 [39] was 0.74 µM and the TGI [39] was 15.3 µM. The GI50 [40] was 1.06 µM, the TGI [40] was 9.13 µM and the GI50 [41] was 6.72 µM. The TGI [41] was 21.5 µM, the GI50 [42] was 3.17 µM and the TGI [42] was 19.6 µM. The GI50 [43] was 2.43 µM, the TGI [43] was 16.9 µM and the GI50 [44] was 2.17 µM. It also gave a TGI [44] of 17.7 µM, a GI50 [45] of 1.84 µM and a TGI [45] of 10.9 µM. It also gave a GI50 [46] of 1.55 µM, a TGI [46] of 3.33 µM and a GI50 [47] of 8.71 µM. The TGI [47] was 21.8 µM, the GI50 [48] was 2.47 µM and the TGI [48] was 10.3 µM. It also gave a GI50 [49] of 0.997 µM, a TGI [49] of 2.6 µM and a GI50 [50] of 1.14 µM. The TGI [50] was 15.2 µM, the GI50 [51] was 3.01 µM and the TGI [51] was 16.7 µM. The GI50 [52] was 5.93 µM, the TGI [52] was 20 µM and the GI50 [53] was 2.18 µM. The TGI [53] was 12.1 µM, the GI50 [54] was 1.22 µM and the TGI [54] was 6.06 µM. The GI50 [55] was 1.39 µM, the TGI [55] was 11.8 µM and the GI50 [56] was 2.57 µM. The TGI [56] was 16.1 µM.
